Measured values taken from publication PMC2151644 (The Journal of General Physiology, 2007).
Substitutions are numbered along the chain they refer to.

What was measured:
[1] = target: T1, epithelial sodium channel (ENaC), β subunit (FLAG-tagged β-ENaC) (Rattus norvegicus, UniProt P37089+P37090+P37091); test: dose-response block of short-circuit current in MDCK monolayers; format: cell-based
T1 sequence (P37090 1-638): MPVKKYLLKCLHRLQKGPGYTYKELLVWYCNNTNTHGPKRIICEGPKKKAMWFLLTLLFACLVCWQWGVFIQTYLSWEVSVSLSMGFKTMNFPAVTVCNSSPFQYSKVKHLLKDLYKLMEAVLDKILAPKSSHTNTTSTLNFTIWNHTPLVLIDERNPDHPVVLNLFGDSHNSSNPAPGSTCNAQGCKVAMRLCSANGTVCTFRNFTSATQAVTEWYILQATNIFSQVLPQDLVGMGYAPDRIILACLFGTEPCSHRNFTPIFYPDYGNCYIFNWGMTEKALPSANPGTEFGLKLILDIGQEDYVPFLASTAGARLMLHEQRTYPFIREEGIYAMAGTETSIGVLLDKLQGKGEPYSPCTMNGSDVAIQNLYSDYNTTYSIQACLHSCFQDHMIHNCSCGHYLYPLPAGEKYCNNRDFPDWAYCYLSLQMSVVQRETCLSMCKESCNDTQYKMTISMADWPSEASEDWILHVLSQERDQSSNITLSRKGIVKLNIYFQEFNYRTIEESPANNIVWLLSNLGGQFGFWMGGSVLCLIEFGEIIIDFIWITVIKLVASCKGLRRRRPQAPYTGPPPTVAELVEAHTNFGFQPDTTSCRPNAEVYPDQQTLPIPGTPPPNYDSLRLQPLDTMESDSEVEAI
T1 sequence (P37089 1-698): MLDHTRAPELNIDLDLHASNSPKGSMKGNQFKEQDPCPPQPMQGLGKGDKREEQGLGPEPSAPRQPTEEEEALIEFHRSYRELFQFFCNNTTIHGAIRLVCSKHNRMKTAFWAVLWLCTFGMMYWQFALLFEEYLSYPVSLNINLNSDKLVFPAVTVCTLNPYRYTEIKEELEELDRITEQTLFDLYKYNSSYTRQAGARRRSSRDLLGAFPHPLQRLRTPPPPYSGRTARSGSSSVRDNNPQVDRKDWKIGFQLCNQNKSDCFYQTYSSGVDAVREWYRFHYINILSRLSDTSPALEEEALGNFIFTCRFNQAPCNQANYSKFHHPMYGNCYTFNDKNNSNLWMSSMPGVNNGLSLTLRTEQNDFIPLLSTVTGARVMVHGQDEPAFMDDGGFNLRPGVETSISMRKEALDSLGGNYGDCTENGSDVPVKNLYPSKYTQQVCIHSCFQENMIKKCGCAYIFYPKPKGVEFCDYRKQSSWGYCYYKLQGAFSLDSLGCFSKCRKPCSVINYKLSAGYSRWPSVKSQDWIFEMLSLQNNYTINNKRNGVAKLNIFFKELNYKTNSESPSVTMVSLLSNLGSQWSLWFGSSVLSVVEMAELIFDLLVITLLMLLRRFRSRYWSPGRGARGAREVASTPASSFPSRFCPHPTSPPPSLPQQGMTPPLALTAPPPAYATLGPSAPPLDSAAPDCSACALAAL
T1 sequence (P37091 1-650): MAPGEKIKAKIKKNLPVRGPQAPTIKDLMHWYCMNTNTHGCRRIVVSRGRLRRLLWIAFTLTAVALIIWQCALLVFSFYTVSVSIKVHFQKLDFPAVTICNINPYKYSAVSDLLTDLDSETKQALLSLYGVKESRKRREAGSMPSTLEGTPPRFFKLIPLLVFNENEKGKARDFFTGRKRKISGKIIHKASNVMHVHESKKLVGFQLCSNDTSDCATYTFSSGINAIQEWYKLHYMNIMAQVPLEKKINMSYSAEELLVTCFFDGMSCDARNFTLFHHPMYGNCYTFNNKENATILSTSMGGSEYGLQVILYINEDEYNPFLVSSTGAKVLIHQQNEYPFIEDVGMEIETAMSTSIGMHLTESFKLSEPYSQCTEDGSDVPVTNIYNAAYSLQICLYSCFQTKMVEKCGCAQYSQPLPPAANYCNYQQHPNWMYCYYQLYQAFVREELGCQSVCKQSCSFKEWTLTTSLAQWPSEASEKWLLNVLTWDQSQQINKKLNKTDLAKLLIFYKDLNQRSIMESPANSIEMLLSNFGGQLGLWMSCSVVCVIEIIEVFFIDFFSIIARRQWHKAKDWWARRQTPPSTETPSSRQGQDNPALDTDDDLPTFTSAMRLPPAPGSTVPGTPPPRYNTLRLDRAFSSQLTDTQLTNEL

[2] = target: T2, epithelial sodium channel (ENaC), β subunit (FLAG-tagged/G525C β-ENaC) (Rattus norvegicus, UniProt P37089+P37090+P37091, P37090:G525C); test: as above; format: cell-based
T2 sequence (P37090 1-638 G525C): T1 sequence (P37090 1-638) with G525C
T2 sequence (P37089 1-698): T1 sequence (P37089 1-698)
T2 sequence (P37091 1-650): T1 sequence (P37091 1-650)

Row | Structure (SMILES) | Ki [1] [nM] | Ki [2] [nM]
1 | N=C(N)NC(=O)c1nc(Cl)c(N)nc1N [amiloride] | 84 | 36000
2 | NC(=NCc1ccccc1)NC(=O)c1nc(Cl)c(N)nc1N [benzamil] | 18 | 2900
